For data set [1] the following is noted: rats; cited from earlier work.
The test system of the next data set is IL-18. In words: IL-18 in supernatant of LPS-stimulated human mononuclear blood cells. Format: cell-based. Conditions: for Results IL-18 (percentage relative to the vehicle): 2 h pretreatment, LPS 100 ng/mL 6 h; for reduction of IL-18 levels, in words: LPS 100 ng/mL, FIG. 7-9. How it is done: (§1) Methods: Mononuclear blood cells are isolated from the blood of healthy donors through Ficoll density gradient (Ficoll-Paque PLUS; GE Healthcare; 11778538) with density gradient centrifuge tubes (SepMate; StemCell Technologies; 85450). The mononuclear blood cells are deposited (200000 cells per well) in 96-well plates, pretreated either with the vehicle (0.179% PBS) or with a composition according to the invention or ions alone (see Table 6) for 2 hours, then stimulated for 6 hours without (vehicle 0.002% H2O) or with lipopolysaccharides (LPS at 100 ng/mL; Invivogen, tlrl-b5lps) at 37° C., 5% C02 in an RPMI medium containing 10% fetal calf serum and 1% penicillin/streptomycin. After 6 hours of incubation, the culture supernatant is collected and stored at −20° C. until cytokine analysis. The level of cytokines (IL-1β and IL-18) is quantified in the culture supernatant by ELISA according to the manufacturer's instructions (R&D Systems; DY201, DY318-05). Table 6 summarizes the percentage of IL-1β and IL-18 cytokines measured for each condition relative to the vehicle (ns: not significant)

Data set [2] concerns sensory neurons. Nature of the data set: Myelinated sensory neurons with or without cisplatin: neuron count, neurite length, myelin sheath length (Examples 7 and 8a, curative protocol). It is filed as cell-based, rat. The note with it: without cisplatin (healthy cells), Table 2.
The next data set deals with IL-1β. In words: IL-1β in supernatant of LPS-stimulated human mononuclear blood cells. Format: cell-based. The note with it: for Results IL-1β (percentage relative to the vehicle): 2 h pretreatment, LPS 100 ng/mL 6 h; for reduction of IL-1β levels, in words: LPS 100 ng/mL, FIG. 7-9. The procedure:
as §1

Data set [3] has as its system sensory neurons. In words: Myelinated sensory neurons with or without cisplatin: neuron count, neurite length, myelin sheath length (Examples 7 and 8a, curative protocol). It is filed as cell-based, rat. Conditions: for Average percentage of neurite length relative to control / Average percentage of sensory neuron count relative to control: isolated ions + cisplatin (12 μM, 24 h), Table 3. The procedure:
Female rats with 15 days gestation were killed by cervical dislocation (Wistar rats; January Lab) and fetuses were removed from the uterus. Embryonic DRGs were collected and placed in an icy medium of Leibovitz 15 (L15; PanBiotech, Ref P04-27055, Batch: 5331021) containing 2% Penicillin-Streptomycin (PS; PanBiotech, ref: P06-07100, Batch: 9300621) and 1% bovine serum albumin (BSA; PanBiotech, ref: P06-1391100, lot: H210207). DRG were dissociated by trypsinization for 20 minutes (min) at 37° C. (Trypsin EDTA 1X; PanBiotech, Ref: P10-023100, Batch: 8600621). The reaction was halted by the addition of Dulbecco's modified Eagle medium (DMEM; PanBiotech, Ref: P04-03600, Batch: 1130721) containing DNase I grade II (0.1 mg/ml; PanBiotech, Ref: P60-37780100, Batch: H181015) and 10% fetal calf serum (FCS; Invitrogen, ref: 10270106, lot: 2319479). The cells were then mechanically dissociated by 3 passes through a 10 ml pipette. The cells were then centrifuged at 180×g for 10 min at +4° C. on a layer of BSA (3.5%) in medium L15. The supernatant was discarded and the cell pellets were resuspended in a defined culture medium consisting of Neurobasal (Invitrogen, Ref: 21103049, Batch: 2348949) supplemented with 2% B27; (Invitrogen, ref: 17504-044, Batch: 2336991), L-glutamine (2 mM; PanBiotech, Ref: P04-80100, Batch: 2770620), 2% PS and 50 ng/mL NGF (Sigma, Ref: N1408, Lot: SLCG2596). The viable cells were then counted in a Neubauer cytometer using the trypan blue exclusion test. The cells were seeded to a density of 12000 cells/wells in 96-well plates (pre-coated with poly-D-lysine; Greiner, Ref: 655940, Lot: E200933A) and were grown at 37° C. in humidified air (95%/CO2 (5%) atmosphere. Half of the middle was changed every 2 days with fresh medium. The cells are maintained for 7 days to allow the proliferation of Schwann cells and sensory neurons. On day 8, the medium is supplemented with 50 μg/mL of ascorbic acid (AA; Sigma, Ref 092902, Batch: 05316HJ-438) to initiate the differentiation of basal Schwann cells into myelinating Schwann cells.
Cis-diammineplatinum(II) dichloride (cisplatin; Sigma, ref: P4394, lot: MKCN8054) was reconstituted in DMSO at 24 mM (stock solution). The control environment was prepared under the same conditions. After 12 days of culture with AA, the primary sensory neurons were pretreated for 2 hours with the compositions of Example 1 or with a reference compound (NGF, 50 ng/ML) and then intoxicated with cisplatin. The cisplatin preparation was used on neurons at a final concentration of 12 μM diluted in control medium for 24 hours of incubation.
In parallel, the effect of isolated or combined ions two by two on the survival of sensory neurons and the length of neurites was also evaluated under the same conditions. The solutions are all prepared from chlorides of the ions tested.
The effect of ion combinations on sensory neuron survival and neurite length was evaluated under the same conditions as described above. The solutions are all prepared from chlorides of the ions tested.

Data set [4] has as its system sensory neurons. Nature of the data set: Myelinated sensory neurons with or without cisplatin: survival, neurite length, myelin sheath length (Example 8b, protection protocol). Conditions: cisplatin 12 μM, 24 hours. It is filed as cell-based, rat. The procedure: The primary endpoint was the measurement of sensory neurons survival, the assessment of neurite length and myelin sheath length of sensory neurons after cisplatin intoxication and without intoxication.
Cis-diammineplatinum (II) dichloride (cisplatin; Sigma, ref: P4394, lot: MKCL0026) was reconstituted in medium at 10 mg/ml (stock solution). The control environment was prepared under the same conditions. After 12 days of culture with AA, primary sensory neurons were pretreated for 2 hours with a 3-concentration multi-ionic complex and then intoxicated with cisplatin. The cisplatin preparation was used on neurons at a final concentration of 12 μM diluted in control medium for 24 hours of incubation.
The concentrations of the multi-ionic complex were: • 1. TA6496: Li 10.37 mmol/kg, Mg 2.27 mmol/kg, K 16.88 mmol/kg • 2. TA6440: Li 5.76 mmol/kg, Mg 1.26 mmol/kg, K 9.38 mmol/kg • 3. TA6415: Li 1.73 mmol/kg, Mg 0.38 mmol/kg, K 2.81 mmol/kg
The following conditions were assessed: • Control medium • Control+cisplatin (12 μM, 24h) • Multi-ionic complex, at 3 different concentrations TA6496, TA6440 or TA6415+cisplatin (12 μM, 24h) • Multi-ionic complex, at 3 different concentrations TA6496, TA6440 or TA6415.
This study was performed with 6 wells per condition and duplicated for validation of results. The data included and analysed are the combined results of the 2 studies. […]

These results are taken from patent publication US20250345362A1, “MULTI-IONIC COMPLEX FOR THE PREVENTION OR TREATMENT OF INFLAMMATION” (YNIOS PHARMA, priority 2022, published 2025).

The structures appear in SMILES notation.

`[Cl-].[K+]` [K, potassium chloride]: the “intravenous lethal dose 50 (LD50) over 24 hours” value in data set [1] is recorded as 142 mg/kg. Besides, the “Results IL-18 (percentage relative to the vehicle)” value was found to be 72.48% with IL-18 (listed as K - 660 mg/L) and 69.71% in the data set on IL-18 (listed as K - 880 mg/L). The “reduction of IL-18 levels, in words” value in the data set with IL-18 is on record as “Neither magnesium, lithium, nor potassium, alone, demonstrated significant reductions”. In addition, the results for the “Average percentage of neurite length relative to control” value with sensory neurons [2] and in the data set on sensory neurons [3] were 115% and 91%, respectively. The results for the “Average percentage of sensory neuron count relative to control” value with sensory neurons [2] and in the data set with sensory neurons [3] were 117% and 58%, respectively. The “Results IL-1β (percentage relative to the vehicle)” value with IL-1β (listed as K - 660 mg/L) amounted to 80.52%; in the data set with IL-1β (listed as K - 880 mg/L), 85.31%. Further, the “reduction of IL-1β levels, in words” value in the data set on IL-1β is listed as “Neither magnesium, lithium, nor potassium, alone, demonstrated significant reductions”.
On to `[Mn+2]` [Manganese], for which the “effect on myelin sheath length, in words” value in the data set with sensory neurons [4] is “without demonstrating any significant effect”. For the same molecule, in the data set on sensory neurons [3] (cisplatin 12 μM, 24 h), the “effect on neurite length, in words” value is “without demonstrating any significant effect” and the “effect on survival of sensory neurons (cisplatin-induced apoptosis), in words” value is on record as “without demonstrating any significant effect”.
Take `[Cl-].[Cl-].[Mg+2]` [Mg, magnesium chloride]: the “Results IL-18 (percentage relative to the vehicle)” value in the data set with IL-18 (listed as Mg - 55.4 mg/L) came to 102.41%; in the data set on IL-18 (listed as Mg - 73.9 mg/L) it was 95.28%. Besides, the “reduction of IL-18 levels, in words” value in the data set with IL-18 is recorded as “Neither magnesium, lithium, nor potassium, alone, demonstrated significant reductions”. Also, the “Average percentage of neurite length relative to control” value came out at 98% with sensory neurons [2] and 73% in the data set with sensory neurons [3]. Moreover, the “Average percentage of sensory neuron count relative to control” value came to 108% with sensory neurons [2] and 68% in the data set with sensory neurons [3]. Besides, the “Results IL-1β (percentage relative to the vehicle)” value is reported as 100.91% in the data set on IL-1β (listed as Mg - 55.4 mg/L) and 97.41% in the data set on IL-1β (listed as Mg - 73.9 mg/L). Moreover, the “reduction of IL-1β levels, in words” value with IL-1β is recorded as “Neither magnesium, lithium, nor potassium, alone, demonstrated significant reductions”.
